# Data reported in BindingDB's records for PubMed 40258217 (The Hebrew University of Jerusalem).
# pKi: −log10 of the molar value.
# Biological target: Cannabinoid receptor 1 (Mus musculus, UniProt P47746)
# Assay: Displacement of [3H]CP-55940 from CB1R in C57Bl/6Jhsd mouse cortex membrane incubated for 1 hr by liquid scintillation counter analysis
# Chain of Cannabinoid receptor 1 (P47746 whole entry): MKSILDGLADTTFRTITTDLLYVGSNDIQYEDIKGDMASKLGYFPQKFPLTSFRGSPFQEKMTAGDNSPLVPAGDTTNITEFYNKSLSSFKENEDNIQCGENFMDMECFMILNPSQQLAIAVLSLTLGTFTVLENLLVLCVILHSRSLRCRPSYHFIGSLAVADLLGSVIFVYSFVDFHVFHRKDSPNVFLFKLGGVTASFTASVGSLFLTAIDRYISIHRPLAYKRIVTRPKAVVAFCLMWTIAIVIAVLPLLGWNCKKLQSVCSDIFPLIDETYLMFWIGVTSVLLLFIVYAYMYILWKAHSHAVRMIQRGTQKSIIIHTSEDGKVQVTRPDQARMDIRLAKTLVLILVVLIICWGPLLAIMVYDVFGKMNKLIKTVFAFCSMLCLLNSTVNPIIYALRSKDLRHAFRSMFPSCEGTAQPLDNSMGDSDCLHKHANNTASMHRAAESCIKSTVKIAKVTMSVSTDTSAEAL
compound,measurement,value
CCOC(=O)N1CCC(N[C@H]2CCCOc3c2nn(-c2ccccc2Cl)c3-c2ccc(Cl)cc2)CC1,pKi,8.05
